These results are taken from ChEMBL document CHEMBL1201862, “PubChem BioAssay data set” (2004).

Some test systems named below: CCRF-CEM; 786-0; RPMI-8226; HCT-15; IGROV-1; M14; A549; KM12; ACHN; HL-60; SNB-75; OVCAR-3; Malme-3M; UO-31; SK-MEL-28.
Holding throughout (test): inhibition of tumour cell growth, NCI panel, 48 h

SMILES strings stand for the structures.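 Step 1: Grow cells in 96-well plates. Step 2: Expose to compound for 48 hours at 5 concentrations. Step 3: Interpolate endpoints linearly; if unreached, use highest concentration. At the GI50, growth is halved.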 The source made the active and inactive calls. Rule as the data show it: active = GI50 up to about 1.1 µM and inactive = higher.

In the case of `CN(C)/N=C(/c1nc2ccc([N+](=O)[O-])cc2nc1O)C(O)c1ccco1` (stereo not given), the GI50 in the assay with CCRF-CEM was > 100 µM (inactive); in the assay with 786-0, > 100 µM (inactive); with RPMI-8226, > 100 µM (inactive); with HCT-15 it was 26.2 µM; with IGROV-1, 90.4 µM (inactive); in the assay on M14, > 100 µM (inactive). The GI50 with A549 was > 100 µM (inactive); with KM12, 34.8 µM (inactive); in the assay on ACHN it was 35.4 µM (inactive); in the assay with HL-60 it was > 100 µM (inactive); with SNB-75 it was > 100 µM (inactive); in the assay with OVCAR-3 it was > 100 µM (inactive). Further, the GI50 was > 100 µM (inactive) in the assay with Malme-3M, 2.51 µM (inactive) in the assay on UO-31 and > 100 µM (inactive) in the assay with SK-MEL-28.
Consider `CCOc1ccccc1NC(=O)C(C#N)C1=C(Cl)C(=O)c2ccccc2C1=O` (stereo not given), for which the GI50 in the assay on CCRF-CEM was 0.867 µM (active); with 786-0 it was 1.79 µM (inactive); in the assay on RPMI-8226, 1.58 µM (inactive); with HCT-15, 1.47 µM; in the assay with IGROV-1, 2.13 µM (inactive); in the assay on M14 it was 1.68 µM (inactive). Moreover, the GI50 is 1.95 µM (inactive) with A549; 1.72 µM (inactive) with KM12; 1.79 µM (inactive) in the assay on ACHN; 0.486 µM (active) with HL-60; 2.33 µM (inactive) with SNB-75; 1.6 µM (inactive) in the assay with OVCAR-3. Besides, the GI50 in the assay on Malme-3M was 1.57 µM (inactive); in the assay with UO-31, 1.73 µM (inactive); in the assay with SK-MEL-28 it was 2.03 µM (inactive).
Turning to `CCCCCC(=O)N[C@H]1CCc2cc(OC)c(OC)c(OC)c2-c2ccc(SC)c(=O)cc21`, the GI50 in the assay on CCRF-CEM was 0.0254 µM (active); with 786-0 it was 0.0335 µM (active); with RPMI-8226 it was 0.0181 µM (active); with HCT-15 it was 0.0209 µM; with IGROV-1 it was 0.0241 µM (active); with M14, 0.016 µM (active). Besides, the GI50 in the assay with A549 is 0.0306 µM (active); in the assay on KM12 it was < 0.01 µM (active); in the assay on ACHN it was 0.0374 µM (active); in the assay with HL-60, < 0.01 µM (active); with SNB-75, 0.0195 µM (active); in the assay with OVCAR-3, 0.0153 µM (active). Also, the GI50 is 0.0106 µM (active) with Malme-3M, 0.0308 µM (active) in the assay with UO-31 and 0.0223 µM (active) in the assay on SK-MEL-28.
Consider `C/C(=C\c1ccccc1)C(O)S(=O)(=O)O` (stereo not given), for which the GI50 in the assay with CCRF-CEM was > 100 µM (inactive); in the assay with 786-0 it was > 100 µM (inactive); in the assay on RPMI-8226 it was > 100 µM (inactive); with HCT-15, over 100 µM; in the assay with IGROV-1, > 100 µM (inactive); in the assay on M14 it was > 100 µM (inactive). For the same compound, the GI50 in the assay on A549, in the assay with KM12, in the assay with ACHN, in the assay on HL-60, with SNB-75 and in the assay on OVCAR-3 was > 100 µM (inactive) in each case. The GI50 with Malme-3M, with UO-31 and in the assay on SK-MEL-28 was > 100 µM (inactive) each time.
On to `COc1c2c(c(OC)c3c(=O)cc(C/C(=N/NC(=O)C[n+]4ccccc4)C(=O)Nc4cc(C)ccc4C)oc13)OCO2`, for which the GI50 was > 100 µM (inactive) in the assay with CCRF-CEM; > 100 µM (inactive) with 786-0; > 100 µM (inactive) in the assay on RPMI-8226; over 100 µM in the assay with HCT-15; > 100 µM (inactive) in the assay on IGROV-1; > 100 µM (inactive) in the assay on M14. Moreover, the GI50 with A549, in the assay on KM12, with ACHN, in the assay with HL-60, in the assay on SNB-75 and with OVCAR-3 was > 100 µM (inactive) each time. The GI50 with Malme-3M, with UO-31 and with SK-MEL-28 was > 100 µM (inactive) each time.
